ChEMBL document CHEMBL1201862, “PubChem BioAssay data set” (2004)
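Following 48 hours of exposure in 96-well plates, responses at five concentrations were used to interpolate endpoints linearly. Abbreviation: GI50, concentration required for 50% inhibition of growth.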 Activity calls are given as the source filed them. Rule as the data show it: active = GI50 up to about 1.1 µM and inactive = higher.

Tests used:
Test in all cases: NCI-60 cell line screen, 48 h
TK-10 = system: TK-10
OVCAR-8 = system: OVCAR-8
A549 = system: A549
UO-31 = system: UO-31
SK-MEL-2 = system: SK-MEL-2
SK-MEL-28 = system: SK-MEL-28
NCI-H23 = system: NCI-H23
OVCAR-3 = system: OVCAR-3
CCRF-CEM = system: CCRF-CEM
K562 = system: K562
HT-29 = system: HT-29
UACC-257 = system: UACC-257
HOP-92 = system: HOP-92
RPMI-8226 = system: RPMI-8226
UACC-62 = system: UACC-62
IGROV-1 = system: IGROV-1
HCT-116 = system: HCT-116

C#CCOCn1cnc2c(Sc3c([N+](=O)[O-])ncn3C)ncnc21 was tested, and the GI50 (TK-10) was > 100 µM (inactive), the GI50 (OVCAR-8) was > 100 µM (inactive) and the GI50 (A549) was > 100 µM (inactive). For the same compound, the GI50 (UO-31) was 91.8 µM (inactive), the GI50 (SK-MEL-2) was > 100 µM (inactive) and the GI50 (SK-MEL-28) was > 100 µM (inactive). The GI50 (NCI-H23) was > 100 µM (inactive), the GI50 (OVCAR-3) was > 100 µM (inactive) and the GI50 (CCRF-CEM) was 97.7 µM (inactive). The GI50 (K562) was > 100 µM (inactive), the GI50 (HT-29) was > 100 µM (inactive) and the GI50 (UACC-257) was > 100 µM (inactive). For the same compound, the GI50 (HOP-92) was > 100 µM (inactive), the GI50 (RPMI-8226) was > 100 µM (inactive) and the GI50 (UACC-62) was > 100 µM (inactive). The GI50 (IGROV-1) was > 100 µM (inactive).
CC12OC3CC(O1)C1(C=O)C4CCC5(C)C(c6ccc(=O)oc6)CCC5(O)C4CCC1(C3)O2 (stereo not drawn) was tested, and the GI50 (TK-10) was 0.143 µM (active), the GI50 (OVCAR-8) was 0.256 µM (active) and the GI50 (A549) was 0.0611 µM (active). For the same compound, the GI50 (UO-31) was 0.304 µM (active), the GI50 (SK-MEL-2) was 0.268 µM (active) and the GI50 (SK-MEL-28) was 0.491 µM (active). For the same compound, the GI50 (OVCAR-3) was 0.13 µM (active), the GI50 (CCRF-CEM) was 0.0735 µM (active) and the GI50 (K562) was 0.265 µM (active). The GI50 (HT-29) was 0.385 µM (active), the GI50 (HCT-116) was 0.0537 µM (active) and the GI50 (UACC-257) was 0.234 µM (active). For the same compound, the GI50 (HOP-92) was 0.339 µM (active), the GI50 (RPMI-8226) was 0.0313 µM (active) and the GI50 (UACC-62) was 0.288 µM (active). For the same compound, the GI50 (IGROV-1) was 0.341 µM (active).
With O=C1CC(c2c(-c3ccccc3)[nH]c3ccccc23)C(=O)N1 (stereo not drawn) the GI50 (TK-10) was > 100 µM (inactive), the GI50 (OVCAR-8) was > 100 µM (inactive) and the GI50 (A549) was > 100 µM (inactive). The GI50 (UO-31) was 76.6 µM (inactive), the GI50 (SK-MEL-2) was > 100 µM (inactive) and the GI50 (SK-MEL-28) was > 100 µM (inactive). For the same compound, the GI50 (NCI-H23) was > 100 µM (inactive), the GI50 (OVCAR-3) was > 100 µM (inactive) and the GI50 (CCRF-CEM) was > 100 µM (inactive). For the same compound, the GI50 (K562) was > 100 µM (inactive), the GI50 (HT-29) was > 100 µM (inactive) and the GI50 (HCT-116) was > 100 µM (inactive). The GI50 (UACC-257) was > 100 µM (inactive), the GI50 (RPMI-8226) was > 100 µM (inactive) and the GI50 (UACC-62) was 89.3 µM (inactive). The GI50 (IGROV-1) was > 100 µM (inactive).
For Cc1ccc(C2(O)CC(c3ccc([N+](=O)[O-])o3)=NN2C(=O)COc2ccccc2Cl)cc1 (stereo not drawn), the GI50 (TK-10) was 35.7 µM (inactive), the GI50 (OVCAR-8) was 11.2 µM (inactive) and the GI50 (A549) was 18.1 µM (inactive). For the same compound, the GI50 (UO-31) was 12.5 µM (inactive), the GI50 (SK-MEL-2) was 8.07 µM (inactive) and the GI50 (SK-MEL-28) was 15.2 µM (inactive). For the same compound, the GI50 (NCI-H23) was 12.4 µM (inactive), the GI50 (OVCAR-3) was 3.94 µM (inactive) and the GI50 (CCRF-CEM) was 5.45 µM (inactive). The GI50 (K562) was 7.26 µM (inactive), the GI50 (HT-29) was 4.21 µM (inactive) and the GI50 (HCT-116) was 5.6 µM (inactive). The GI50 (UACC-257) was 8.18 µM (inactive), the GI50 (HOP-92) was 27.4 µM (inactive) and the GI50 (RPMI-8226) was 3.53 µM (inactive). The GI50 (UACC-62) was 3.91 µM (inactive) and the GI50 (IGROV-1) was 15.9 µM (inactive).
O=C1c2cccc(O)c2C(=O)c2cccc(O)c21 [ANTHRARUFIN] was tested, and the GI50 (TK-10) was > 100 µM (inactive), the GI50 (OVCAR-8) was > 100 µM (inactive) and the GI50 (A549) was > 100 µM (inactive). For the same compound, the GI50 (UO-31) was > 100 µM (inactive), the GI50 (SK-MEL-2) was > 100 µM (inactive) and the GI50 (NCI-H23) was > 100 µM (inactive). For the same compound, the GI50 (OVCAR-3) was > 100 µM (inactive), the GI50 (CCRF-CEM) was > 100 µM (inactive) and the GI50 (K562) was > 100 µM (inactive). For the same compound, the GI50 (HT-29) was > 100 µM (inactive), the GI50 (HCT-116) was > 100 µM (inactive) and the GI50 (UACC-257) was > 100 µM (inactive). For the same compound, the GI50 (HOP-92) was > 100 µM (inactive), the GI50 (RPMI-8226) was > 100 µM (inactive) and the GI50 (UACC-62) was > 100 µM (inactive). The GI50 (IGROV-1) was > 100 µM (inactive).
In the case of CC1NS(=O)(=O)N(C)C1=O (stereo not drawn), the GI50 (TK-10) is reported as > 100 µM (inactive), the GI50 (OVCAR-8) is reported as > 100 µM (inactive) and the GI50 (A549) is reported as > 100 µM (inactive). The GI50 (SK-MEL-2) was > 100 µM (inactive), the GI50 (SK-MEL-28) was > 100 µM (inactive) and the GI50 (NCI-H23) was > 100 µM (inactive). For the same compound, the GI50 (OVCAR-3) was > 100 µM (inactive), the GI50 (CCRF-CEM) was > 100 µM (inactive) and the GI50 (K562) was > 100 µM (inactive). For the same compound, the GI50 (HCT-116) was > 100 µM (inactive), the GI50 (UACC-257) was > 100 µM (inactive) and the GI50 (HOP-92) was > 100 µM (inactive). The GI50 (RPMI-8226) was > 100 µM (inactive), the GI50 (UACC-62) was > 100 µM (inactive) and the GI50 (IGROV-1) was > 100 µM (inactive).
In the case of Nc1nc(O)c2c(ncn2CCO)n1, the GI50 (TK-10) is reported as > 100 µM (inactive), the GI50 (OVCAR-8) is reported as > 100 µM (inactive) and the GI50 (A549) is reported as > 100 µM (inactive). The GI50 (UO-31) was > 100 µM (inactive), the GI50 (SK-MEL-2) was > 100 µM (inactive) and the GI50 (SK-MEL-28) was > 100 µM (inactive). The GI50 (NCI-H23) was > 100 µM (inactive), the GI50 (OVCAR-3) was > 100 µM (inactive) and the GI50 (CCRF-CEM) was > 100 µM (inactive). The GI50 (HT-29) was > 100 µM (inactive), the GI50 (HCT-116) was > 100 µM (inactive) and the GI50 (UACC-257) was > 100 µM (inactive). The GI50 (HOP-92) was > 100 µM (inactive), the GI50 (RPMI-8226) was > 100 µM (inactive) and the GI50 (UACC-62) was > 100 µM (inactive).
In the case of CC(C(=O)c1ccc(O)cc1)C1(O)C(=O)Nc2c(Cl)cc(Cl)cc21 (stereo not drawn), the GI50 (TK-10) is reported as > 100 µM (inactive), the GI50 (OVCAR-8) is reported as 46.3 µM (inactive) and the GI50 (A549) is reported as > 100 µM (inactive). The GI50 (UO-31) was > 56.6 µM (inactive), the GI50 (SK-MEL-2) was > 100 µM (inactive) and the GI50 (SK-MEL-28) was 31.1 µM (inactive). The GI50 (NCI-H23) was 59.8 µM (inactive), the GI50 (OVCAR-3) was 31.6 µM (inactive) and the GI50 (CCRF-CEM) was 26.6 µM (inactive). The GI50 (K562) was 2.56 µM (inactive), the GI50 (HT-29) was > 73.8 µM (inactive) and the GI50 (HCT-116) was 43.1 µM (inactive). The GI50 (UACC-257) was 17.5 µM (inactive), the GI50 (HOP-92) was > 100 µM (inactive) and the GI50 (RPMI-8226) was 25.6 µM (inactive). The GI50 (UACC-62) was 14 µM (inactive) and the GI50 (IGROV-1) was > 100 µM (inactive).
